Here are results for four compounds from patent US20240142676A1, “COMPOUND, COMPOSITION, CURED PRODUCT, OPTICALLY ANISOTROPIC BODY, OPTICAL ELEMENT, AND LIGHT GUIDE ELEMENT” (FUJIFILM Corporation, priority 2021, published 2024).

Molecules are shown by their SMILES.

Holding throughout (format): physicochemical
Series [1] can be described thus: Measurement of Δn (refractive index anisotropy), wedge-shaped liquid crystal cell. Particulars: wavelength 550 nm, 30° C. or lower limit temperature of nematic phase+0° C. to 10° C.; extrapolated from 1/2 mixture with L-1-1 where needed. The procedure: The Δn of each of the compounds (the compounds A-1 to A-6 and the compounds B-1 and B-2), which are the compounds to be measured, was measured by a method using a wedge-shaped liquid crystal cell described on page 202 in the Liquid crystal handbook (edited by the liquid crystal handbook editorial board, published by Maruzen Co., Ltd., 2000). Δn was defined as a measured value at a wavelength of 550 nm at 30° C. or the lower limit temperature of the nematic phase+0° C. to 10° C. In a case of a compound which is liable to crystallize or a compound having no liquid crystallinity, evaluation was carried out using a mixture thereof with the other liquid crystal compound, and Δn was estimated from the extrapolated value of the measured value thereof.
The following L-1-1 was used as the other liquid crystal compound. As the above mixture, a mixture obtained by mixing at a ratio of the compound to be measured/the L-1-1=1/2 (in terms of mass ratio) was used.
A case where Δn was 0.35 or more was evaluated as A, a case where Δn was 0.30 or more and less than 0.35 was evaluated as B, and a case where Δn was less than 0.30 was evaluated as C.

Series [2] can be described thus: Evaluation of liquid crystallinity (hot stage, polarization microscope). More on the design: key: A case of having liquid crystallinity was evaluated as A; a case of having no liquid crystallinity was evaluated as B. Particulars: heated on a hot stage, observed with a polarization microscope. As to the method:
The respective compounds (the compounds A-1 to A-6 and the compounds B-1 and B-2) were heated on a hot stage and observed with a polarization microscope, and the phase transition temperature was measured to evaluate the presence or absence of the liquid crystallinity. A case of having liquid crystallinity was evaluated as A, and a case of having no liquid crystallinity was evaluated as B. The results are shown in Table 1.
Since B-1 has melting points of 200° C. or higher and undergo a polymerization reaction during heating, liquid crystallinity could not be evaluated.

Series [3] in a line: Light resistance evaluation of optically anisotropic layer (Super Xenon Weather Meter). Particulars: rate of change in Re (550 nm) of layer with 25 parts compound/75 parts L-1; 5 million lx, 50 hours, 63° C., 50% RH, oxygen-blocking. As to the method:
As shown below, the light resistance of the optically anisotropic layer produced using the composition containing each of the compounds A-1 to A-6 and the compounds B-1 and B-2 was evaluated.
A coating liquid having the following composition was prepared and applied by spin-coating, onto a rubbing-treated glass attached with an alignment film. Each composition was irradiated with ultraviolet rays of 300 mJ/cm^2 through a filter that cuts light having a wavelength of 350 nm or less on a hot plate which had been heated to a temperature at which a nematic phase is shown, whereby an optically anisotropic layer was produced.
The polymerizable liquid crystal compound L-1 is a mixture obtained by mixing at a ratio of the following L-1-1/L-1-2/L-1-3=84/14/2 (in terms of mass ratio).
The produced optically anisotropic layers for a light resistance test were irradiated with light using a Super Xenon Weather Meter SX75 manufactured by Suga Test Instruments Co., Ltd. Using KU-1000100 manufactured by King Seisakusho Co., Ltd. as a UV cut filter, a light resistance test was carried out by irradiation with 5 million lx of light for 50 hours under an oxygen-blocking condition. The temperature of the specimen to be tested (the temperature inside the test device) was set to 63° C. The relative humidity in the test device was 50% RH.
The Re of the optically anisotropic layer before and after the light resistance test was measured, the light resistance in a case where the rate of change in Re described below was less than 10% was evaluated as A, and the light resistance in a case where the rate of change in Re was 10% or more was evaluated as B. The smaller the rate of change in Re, the more excellent the light resistance.
Rate of change in Re (%)=[100×{|(Re after test)−(Re before test)|}/(Re before test)]
Re was measured with Axoscan manufactured by Axometrics Inc. at a wavelength of 550 nm, and the measurement temperature was set to room temperature.

Series [4] in a line: Evaluation of solubility in methyl ethyl ketone. Particulars: precipitation concentration in methyl ethyl ketone at room temperature (25° C.). The procedure:
The solubility of each of the compounds (the compounds A-1 to A-6 and the compounds B-1 and B-2) in methyl ethyl ketone was evaluated.

As for `C=CC(=O)OCCc1ccc(C#Cc2ccc(-c3ccc(C#Cc4ccc(CCOC(=O)C=C)cc4)cc3C)c(C)c2)cc1` [Compound A-1], the Δn entry in series [1] was “B (a case where Δn was 0.30 or more and less than 0.35 was evaluated as B)”. In addition, the Liquid crystallinity result in series [2] is “A”. Besides, in series [3], the Light resistance result is “A (the light resistance in a case where the rate of change in Re described below was less than 10% was evaluated as A)”. The Solubility entry in series [4] was “A (the solubility in a case where the precipitation concentration was 10% by mass or more was evaluated as A)”.

As for `C=CC(=O)OCCSc1ccc(C#Cc2ccc(-c3ccc(C#Cc4ccc(SCCOC(=O)C=C)cc4)cc3C)c(C)c2)cc1` [Compound A-2], the Δn result in series [1] is listed as “A (A case where Δn was 0.35 or more was evaluated as A)”. For the same compound, the Liquid crystallinity result in series [2] is listed as “A”. Further, in series [3], the Light resistance entry is recorded as “A (the light resistance in a case where the rate of change in Re described below was less than 10% was evaluated as A)”. Moreover, the Solubility entry in series [4] was “A (the solubility in a case where the precipitation concentration was 10% by mass or more was evaluated as A)”.

Regarding `C=CC(=O)OCCCCOc1ccc(C#Cc2ccc(-c3ccc(C#Cc4ccc(OCCCCOC(=O)C=C)cc4)cc3C)c(C)c2)cc1` [Compound A-3], the Δn result in series [1] is “B (a case where Δn was 0.30 or more and less than 0.35 was evaluated as B)”. In addition, in series [2], the Liquid crystallinity result was “A”. The Light resistance entry in series [3] was “A (the light resistance in a case where the rate of change in Re described below was less than 10% was evaluated as A)”. Also, the Solubility entry in series [4] is listed as “A (the solubility in a case where the precipitation concentration was 10% by mass or more was evaluated as A)”.

In the case of `C=CC(=O)OCCc1ccc(C#Cc2cnc(-c3ncc(C#Cc4ccc(CCOC(=O)C=C)cc4)cc3C)c(C)c2)cc1` [Compound A-6], the Δn result in series [1] is “B (a case where Δn was 0.30 or more and less than 0.35 was evaluated as B)”. The Liquid crystallinity entry in series [2] is “A”. Also, in series [3], the Light resistance result is given as “A (the light resistance in a case where the rate of change in Re described below was less than 10% was evaluated as A)”. Further, in series [4], the Solubility result is “A (the solubility in a case where the precipitation concentration was 10% by mass or more was evaluated as A)”.
